Measured values from publication PMC4965013, “Open Source Drug Discovery with the Malaria Box Compound Collection for Neglected Diseases and Beyond” (PLoS Pathogens, 2016).
Where two headings read alike, the source gives them in different places.

Experiments:
P. falciparum 3D7 or K1 = assay: Asexual Blood Stage Imaging Assay (DAPI) V. Avery; type: cell-based
P. falciparum Dd2 = assay: Malaria Sybr Green I Fluorescence assay Dd2 Horrocks; type: cell-based; conditions: Plasmodium falciparum, DD2, 48 h; read-out: P. falciparum Dd2 asexual blood stage EC50 Horrocks
Method: Column S: Horrocks group (data presented first in this paper). Asexual Dd2 inhibition of growth (IC50s): IC50 for the Dd2 clone of Plasmodium falciparum were determined using the Malaria Sybr Green I Fluorescence assay. Drug assays were initiated using a 2% trophozoite stage parasitaemia and 2% hematocrit and fluorescence measured after 48 h as fully described in Hasenkamp et al.[53]. Log dose-response curves were plotted in GraphPad Prism (v5.0). The controls for Dd2 using our 48hr Sybr Green I assay were (rounded to nearest nM): Chloroquine 209nM, Mefloquine 11nM, Quinine 246nM, Dihydroartemisinin 4nM, Artemether 10nM, Atovaquone 3nM.

Chromera velia = Chromera velia flagellation motility assay
P. falciparum HB3 = assay: Stage-specificity / mitochondrial integrity image assay Ayong; type: cell-based; conditions: 10µM
[1] = tested on: HIV-1 JR-FL or HIV-1 NL4-3 viruses; assay: HIV-1 viral production p24 ELISA; type: cell-based; conditions: 10µM
Method: (§1) Columns FK-GB, Moore group (data presented first in this paper). HIV and HIV-producing cell lines, toxicity and viral suppression. […] MMV compounds were incubated with HIV-1 JR-FL or HIV-1 NL4-3 pseudoviruses and U87-CD4-CCR5 or U87-CD4-CXCR4 cells (obtained through the NIH AIDS Reagent Program, Division of AIDS, NIAID, NIH: U87 CD4+CCR5+ Cells from Dr. HongKui Deng and Dr. Dan R. Littman) respectively for 3 days. Cells were assayed for infection by luciferase production (Bright-Glo Luciferase Substrate, Promega) and cell viability by MTT assay. […] MMV compounds were next incubated with HIV-1 JR-FL or HIV-1 NL4-3 viruses and U87-CD4-CCR5 or U87-CD4-CXCR4 cells respectively for 7 days. Cell supernatants were assayed for viral production by p24 ELISA [153] and cell viability by MTT assay. […] DMSO (5%) was completely toxic to all cells (based on visual inspection) and served as the positive control for MTT assays.

[2] = tested on: HIV-1 JR-FL or HIV-1 NL4-3 pseudoviruses; assay: HIV-1 pseudovirus infection luciferase; type: cell-based; conditions: 10µM
Method: as §1

[3] = tested on: P. falciparum NF54 GFP-Pfs16 gametocytes stage I-III; conditions: ref [71]; cited from earlier work
[4] = tested on: P. falciparum NF54 GFP-Pfs16 gametocytes stage IV-V; conditions: ref [71]; cited from earlier work
[5] = Plasmodium falciparum, read-out: P. falciparum 3D7 asexual blood stage EC50 (Image) V. Avery
[6] = Plasmodium falciparum, read-out: P. falciparum K1 asexual blood stage EC50 (Image) V. Avery

## CC[C@H](C)[C@H](NC(=O)[C@H]([C@@H](C)CC)N(C)C(C)=O)C(=O)N[C@H](C(=O)N[C@@H](CC(C)C)C(=O)[C@@]1(C)CO1)[C@@H](C)O [epoxomicin]
P. falciparum 3D7 or K1; 3D7, read-out: P. falciparum 3D7 asexual blood stage EC50 (Image) V. Avery
  EC50: 1 nM
P. falciparum 3D7 or K1; K1, read-out: P. falciparum K1 asexual blood stage EC50 (Image) V. Avery
  EC50: 2 nM

## C=C[C@H]1C[N@@]2CC[C@H]1C[C@H]2[C@H](O)c1ccnc2ccc(OC)cc12 [Quinine]
P. falciparum Dd2
  EC50: 246 nM

## Oc1cc(Cl)ccc1Oc1ccc(Cl)cc1Cl [triclosan, reference compound]
Chromera velia; 0.1 µM
  C. velia flagellation score: +
Chromera velia; 1µM
  C. velia flagellation score: 0

## CC(=O)N[C@@H]1[C@@H](O)[C@H](O)[C@@H](CO)O[C@H]1O [GlcNAC, N-acetylglucosamine, reference compound]
P. falciparum HB3
  Effects on asexual life cycle progression (treatment at ER, LR, T, S; merozoites; mitochondrial integrity): LR-o-o-o-X-o

## Cc1cn([C@H]2C[C@H](N=[N+]=[N-])[C@@H](CO)O2)c(=O)[nH]c1=O [AZT, reference compound]
[1]
  viral infection by p24 production, positive control: completely blocked viral infection
[2]
  viral infection by luciferase, positive control: completely blocked viral infection

## OC(c1cc(C(F)(F)F)nc2c(C(F)(F)F)cccc12)C1CCCCN1 (stereo not shown) [Mefloquine]
P. falciparum Dd2
  EC50: 11 nM

## CCc1nc(N)nc(N)c1-c1ccc(Cl)cc1 [pyrimethamine, reference compound]
P. falciparum 3D7 or K1; [5]
  EC50: 2 nM
P. falciparum 3D7 or K1; [6]
  EC50: 7200 nM
[3]
  early gametocyte imaging, no activity at: > 40 µM
[4]
  late gametocyte imaging, no activity at: > 40 µM

## COc1ccc2nc3cc(Cl)ccc3c(Nc3cc(CN4CCCC4)c(O)c(CN4CCCC4)c3)c2n1 [pyronaridine]
P. falciparum 3D7 or K1; [5]
  EC50: 3 nM
P. falciparum 3D7 or K1; [6]
  EC50: 5 nM

## CO[C@H]1O[C@@H]2O[C@@]3(C)CC[C@H]4[C@H](C)CC[C@@H]([C@H]1C)[C@@]24OO3 [Artemether]
P. falciparum Dd2
  EC50: 10 nM
